The text below walks through data of the kinase profiling compilation of Christmann-Franck et al. (2016).

The structures appear in SMILES notation. Where “and” joins values, the source holds several entries; their conditions need not be identical. Identical values can stand only once.

Common to all, as to experiment: KINOMEscan competition binding
Common to all, as to details: compound 10.0 µM

Assay [1] concerns the target DYRK1A (human) (UniProt Q13627).
For assay [2], the system named is MET (human), P08581 [Y1235D].
The target of assay [3] is RPS6KA5 KD1 (human) (UniProt O75582).
Assay [4] has as its target PIP5K1A (human) (UniProt Q99755).
For assay [5], the target named is STK36 (human) (UniProt Q9NRP7).
Assay [6] concerns the target CDK16 (human) (UniProt Q00536).
Assay [7] concerns the target ULK1 (human) (UniProt O75385).
Assay [8] addresses BMPR2 (human) (UniProt Q13873).
Assay [9] concerns the target STK33 (human) (UniProt Q9BYT3).
Assay [10] has as its target PRKD2 (human) (UniProt Q9BZL6).
The target of assay [11] is AURKB (human) (UniProt Q96GD4).
For assay [12], the target named is RIPK1 (human) (UniProt Q13546).
Assay [13] has as its target PRKCD (human) (UniProt Q05655).
The subject of assay [14] is EGFR (human), P00533 [T790M/L858R].
Assay [15] relates to EGFR (human), P00533 [A750P; 747-749 del].
Assay [16] deals with EGFR (human), P00533 [752-759 del].
The target of assay [17] is TAOK1 (human) (UniProt Q7L7X3).
The subject of assay [18] is EGFR (human), P00533 [747-751 del / S ins].
For assay [19], the system named is EGFR (human), P00533 [P753S; 747-752 del].
In assay [20] the test system is EGFR (human), P00533 [G719C].
Assay [21] concerns EGFR (human), P00533 [L861Q].
The subject of assay [22] is EGFR (human), P00533 [746-750 del].
The target of assay [23] is RPS6KA3 KD1 (human) (UniProt P51812).
Assay [24] has as its target CHEK2 (human) (UniProt O96017).
Assay [25] deals with EGFR (human) (UniProt P00533).
Assay [26] relates to EGFR (human), P00533 [G719S].
Assay [27] has as its system EGFR (human), P00533 [L858R].

Chain of RPS6KA5 KD1 (human) (O75582 whole entry, looked up): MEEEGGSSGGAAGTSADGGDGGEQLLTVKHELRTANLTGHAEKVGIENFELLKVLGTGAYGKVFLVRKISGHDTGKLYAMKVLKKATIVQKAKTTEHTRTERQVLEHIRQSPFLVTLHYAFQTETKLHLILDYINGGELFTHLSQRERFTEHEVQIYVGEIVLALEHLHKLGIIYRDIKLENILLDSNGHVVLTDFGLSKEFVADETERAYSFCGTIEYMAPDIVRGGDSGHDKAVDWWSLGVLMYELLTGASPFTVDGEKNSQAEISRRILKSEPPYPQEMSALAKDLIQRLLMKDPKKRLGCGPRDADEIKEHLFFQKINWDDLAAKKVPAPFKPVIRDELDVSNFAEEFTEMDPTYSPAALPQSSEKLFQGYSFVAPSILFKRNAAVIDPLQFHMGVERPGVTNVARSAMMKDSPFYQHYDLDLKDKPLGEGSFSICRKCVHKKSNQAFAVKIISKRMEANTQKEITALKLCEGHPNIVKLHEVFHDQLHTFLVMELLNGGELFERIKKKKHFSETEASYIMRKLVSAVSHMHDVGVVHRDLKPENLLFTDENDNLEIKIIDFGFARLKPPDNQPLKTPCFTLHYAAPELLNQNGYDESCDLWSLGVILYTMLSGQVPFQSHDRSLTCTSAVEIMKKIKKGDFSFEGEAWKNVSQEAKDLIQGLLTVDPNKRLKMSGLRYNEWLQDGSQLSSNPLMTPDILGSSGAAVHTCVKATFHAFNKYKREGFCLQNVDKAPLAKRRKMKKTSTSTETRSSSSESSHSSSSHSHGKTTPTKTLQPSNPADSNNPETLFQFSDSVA
Chain of AURKB (human) (Q96GD4 whole entry, looked up): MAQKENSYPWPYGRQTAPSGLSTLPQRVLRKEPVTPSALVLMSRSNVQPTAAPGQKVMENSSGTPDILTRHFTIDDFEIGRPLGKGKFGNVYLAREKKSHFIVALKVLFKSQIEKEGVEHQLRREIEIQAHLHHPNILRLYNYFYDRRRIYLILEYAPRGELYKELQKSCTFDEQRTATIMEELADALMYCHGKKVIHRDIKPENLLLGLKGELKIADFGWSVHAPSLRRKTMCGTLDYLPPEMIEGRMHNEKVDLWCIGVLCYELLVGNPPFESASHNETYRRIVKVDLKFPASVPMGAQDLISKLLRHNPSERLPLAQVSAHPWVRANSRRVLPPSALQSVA
Chain of STK33 (human) (Q9BYT3 whole entry, looked up): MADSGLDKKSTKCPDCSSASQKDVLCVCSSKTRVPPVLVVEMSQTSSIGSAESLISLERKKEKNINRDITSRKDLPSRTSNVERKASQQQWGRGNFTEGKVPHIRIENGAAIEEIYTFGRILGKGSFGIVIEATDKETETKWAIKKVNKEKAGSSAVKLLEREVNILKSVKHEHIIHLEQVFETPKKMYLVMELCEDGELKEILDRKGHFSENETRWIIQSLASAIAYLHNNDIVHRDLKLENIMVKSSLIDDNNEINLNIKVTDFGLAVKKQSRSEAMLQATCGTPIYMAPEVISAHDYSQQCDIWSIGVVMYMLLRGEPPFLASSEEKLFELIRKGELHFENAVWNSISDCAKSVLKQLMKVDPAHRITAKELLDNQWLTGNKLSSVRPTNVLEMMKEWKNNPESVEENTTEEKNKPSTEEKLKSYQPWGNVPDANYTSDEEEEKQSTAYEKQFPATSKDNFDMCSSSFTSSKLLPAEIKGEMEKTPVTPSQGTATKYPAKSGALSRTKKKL
Chain of STK36 (human) (Q9NRP7 whole entry, looked up): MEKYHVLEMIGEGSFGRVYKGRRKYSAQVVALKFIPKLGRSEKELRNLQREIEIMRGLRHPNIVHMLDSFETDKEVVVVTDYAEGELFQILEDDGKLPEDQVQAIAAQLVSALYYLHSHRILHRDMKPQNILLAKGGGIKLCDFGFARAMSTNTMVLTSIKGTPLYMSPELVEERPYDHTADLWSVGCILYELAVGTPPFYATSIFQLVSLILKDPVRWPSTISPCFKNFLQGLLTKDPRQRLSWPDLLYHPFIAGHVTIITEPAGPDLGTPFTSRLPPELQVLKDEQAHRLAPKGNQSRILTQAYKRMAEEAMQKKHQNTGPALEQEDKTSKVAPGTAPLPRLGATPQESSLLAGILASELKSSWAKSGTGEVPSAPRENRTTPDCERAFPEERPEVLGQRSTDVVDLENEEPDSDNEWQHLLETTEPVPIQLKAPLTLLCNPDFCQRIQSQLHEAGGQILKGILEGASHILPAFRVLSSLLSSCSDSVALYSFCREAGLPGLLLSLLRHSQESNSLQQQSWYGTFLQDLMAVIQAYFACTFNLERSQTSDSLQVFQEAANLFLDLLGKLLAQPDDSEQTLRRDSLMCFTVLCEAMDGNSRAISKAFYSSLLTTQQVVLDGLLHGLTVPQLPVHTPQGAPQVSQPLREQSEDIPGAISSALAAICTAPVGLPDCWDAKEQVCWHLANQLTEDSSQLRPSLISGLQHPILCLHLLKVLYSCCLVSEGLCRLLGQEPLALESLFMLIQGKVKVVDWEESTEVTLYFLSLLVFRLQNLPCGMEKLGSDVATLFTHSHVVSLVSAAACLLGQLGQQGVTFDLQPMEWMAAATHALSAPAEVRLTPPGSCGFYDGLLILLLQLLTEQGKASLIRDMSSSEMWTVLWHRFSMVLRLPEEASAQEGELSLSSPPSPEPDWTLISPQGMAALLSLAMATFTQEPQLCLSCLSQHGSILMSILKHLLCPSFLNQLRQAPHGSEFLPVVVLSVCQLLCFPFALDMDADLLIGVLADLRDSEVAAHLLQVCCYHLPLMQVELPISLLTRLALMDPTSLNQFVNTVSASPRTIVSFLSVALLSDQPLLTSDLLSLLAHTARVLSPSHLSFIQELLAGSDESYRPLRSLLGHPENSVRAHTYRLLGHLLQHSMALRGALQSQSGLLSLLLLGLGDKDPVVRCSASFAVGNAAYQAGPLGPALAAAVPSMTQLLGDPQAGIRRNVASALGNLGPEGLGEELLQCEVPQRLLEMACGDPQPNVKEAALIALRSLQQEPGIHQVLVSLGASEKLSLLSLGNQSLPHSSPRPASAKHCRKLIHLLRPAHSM
Chain of PRKCD (human) (Q05655 whole entry, looked up): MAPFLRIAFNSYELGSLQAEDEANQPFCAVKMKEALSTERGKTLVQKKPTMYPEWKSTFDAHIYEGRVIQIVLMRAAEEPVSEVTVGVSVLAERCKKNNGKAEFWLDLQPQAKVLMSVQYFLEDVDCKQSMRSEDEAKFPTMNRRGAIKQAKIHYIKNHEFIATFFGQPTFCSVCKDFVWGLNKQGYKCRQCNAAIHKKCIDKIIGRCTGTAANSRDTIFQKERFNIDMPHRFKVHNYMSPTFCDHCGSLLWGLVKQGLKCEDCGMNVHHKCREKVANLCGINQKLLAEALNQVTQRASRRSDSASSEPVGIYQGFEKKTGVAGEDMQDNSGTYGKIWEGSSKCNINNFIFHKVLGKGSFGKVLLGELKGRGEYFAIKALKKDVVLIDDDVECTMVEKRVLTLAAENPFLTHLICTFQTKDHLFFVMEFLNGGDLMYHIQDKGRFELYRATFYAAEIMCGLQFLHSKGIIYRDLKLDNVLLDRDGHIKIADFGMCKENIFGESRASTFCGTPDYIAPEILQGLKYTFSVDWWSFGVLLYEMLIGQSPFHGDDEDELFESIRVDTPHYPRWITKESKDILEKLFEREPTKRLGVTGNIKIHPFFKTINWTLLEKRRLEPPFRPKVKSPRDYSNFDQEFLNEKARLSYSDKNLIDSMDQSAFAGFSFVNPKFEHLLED
Chain of BMPR2 (human) (Q13873 whole entry, looked up): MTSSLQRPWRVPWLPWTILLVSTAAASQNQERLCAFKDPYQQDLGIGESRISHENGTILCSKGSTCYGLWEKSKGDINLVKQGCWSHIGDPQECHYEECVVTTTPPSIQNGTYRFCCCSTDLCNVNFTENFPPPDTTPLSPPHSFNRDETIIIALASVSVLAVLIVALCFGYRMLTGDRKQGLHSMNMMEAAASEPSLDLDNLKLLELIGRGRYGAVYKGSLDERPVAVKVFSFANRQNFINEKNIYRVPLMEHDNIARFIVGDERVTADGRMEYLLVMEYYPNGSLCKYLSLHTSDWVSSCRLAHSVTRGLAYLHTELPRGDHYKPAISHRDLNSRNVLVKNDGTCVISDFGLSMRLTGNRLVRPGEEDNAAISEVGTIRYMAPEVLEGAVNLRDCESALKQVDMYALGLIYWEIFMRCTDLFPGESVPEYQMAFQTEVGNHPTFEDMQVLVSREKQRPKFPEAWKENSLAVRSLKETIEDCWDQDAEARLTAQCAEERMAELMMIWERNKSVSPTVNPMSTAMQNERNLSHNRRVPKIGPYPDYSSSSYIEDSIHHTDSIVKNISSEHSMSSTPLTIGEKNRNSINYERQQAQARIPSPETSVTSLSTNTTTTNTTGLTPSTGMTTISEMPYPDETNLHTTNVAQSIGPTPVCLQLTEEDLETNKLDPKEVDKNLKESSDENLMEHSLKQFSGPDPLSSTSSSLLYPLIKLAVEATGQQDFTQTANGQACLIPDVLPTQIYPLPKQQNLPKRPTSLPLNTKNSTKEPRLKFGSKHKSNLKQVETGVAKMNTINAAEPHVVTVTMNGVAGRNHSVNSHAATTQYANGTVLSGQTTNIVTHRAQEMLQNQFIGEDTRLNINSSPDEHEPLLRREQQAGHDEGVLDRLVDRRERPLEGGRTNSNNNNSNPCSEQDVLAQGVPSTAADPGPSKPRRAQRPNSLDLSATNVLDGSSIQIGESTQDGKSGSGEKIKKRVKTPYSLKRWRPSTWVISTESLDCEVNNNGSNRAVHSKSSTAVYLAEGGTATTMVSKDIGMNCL

Consider `Cc1cnc(-c2cnc(NCCNc3ccc(C#N)cn3)nc2-c2ccc(Cl)cc2Cl)[nH]1`, for which the kinase still bound, per cent of control in assay [1] worked out at 100%; in assay [2] it was 100%; in assay [3], 98%; in assay [4], 100%; in assay [5], 42%; in assay [6], 39%. Besides, the kinase still bound, per cent of control amounted to 94% in assay [7]; 90% in assay [8]; 100% in assay [9]; 100% in assay [10]; 94% in assay [11]; 100% in assay [12]. The kinase still bound, per cent of control in [13] was found to be 100%.

Take `Cn1cc(C2=C(c3ccc(Cl)cc3Cl)C(=O)NC2=O)c2ccccc21`: the kinase still bound, per cent of control in [14] was 97%; in [15] it was 85%; in [16], 94%; in [1], 2.3%; in [2] it was 85%; in assay [3], 98%. Moreover, the kinase still bound, per cent of control is 100% in assay [4]; 90% and 98% in assay [17]; 91% in assay [18]; 100% in assay [5]; 0.2% in assay [6]; 99% in assay [19]. Besides, the kinase still bound, per cent of control in assay [7] worked out at 96%; in assay [20], 100%; in assay [8] it was 100%; in assay [9], 100%; in [21], 83%; in assay [10], 99%. Besides, the kinase still bound, per cent of control in assay [22] came out at 77%; in assay [11], 96%; in assay [23], 100%; in assay [24], 90%; in assay [25], 100%; in assay [12], 100%. Further, the kinase still bound, per cent of control in [26] was 99%; in [27], 100%; in assay [13], 41%.

As for `COc1ccc(CNC(=O)Nc2ncc([N+](=O)[O-])s2)cc1`, the kinase still bound, per cent of control is 100% in [1]; 96% in assay [2]; 100% in [3]; 70% in [4]; 85% and 100% in [17]; 100% in assay [5]. The kinase still bound, per cent of control in assay [6] came out at 15%; in assay [7], 100%; in [8], 100%; in assay [9] it was 75%; in assay [10], 93%; in assay [11], 97%. Besides, the kinase still bound, per cent of control in assay [12] and in assay [13] was 100% each time.

Regarding `O=C1Nc2cc(Br)ccc2/C1=C1/Nc2ccccc2/C1=N\O`, the kinase still bound, per cent of control in assay [14] stood at 53%; in [15], 17%; in assay [16] it was 29%; in assay [1], 59%; in assay [2], 100%; in assay [3], 47%. Further, the kinase still bound, per cent of control was 0% in assay [4]; 24% in [18]; 53% in [5]; 0% in [6]; 38% in [19]; 7.3% in assay [7]. Besides, the kinase still bound, per cent of control in assay [20] is 39%; in assay [8] it was 46%; in assay [9], 11%; in assay [21], 34%; in assay [10] it was 100%; in [22], 13%. The kinase still bound, per cent of control in [11] worked out at 2.8%; in [23], 80%; in [24] it was 38%; in [25], 44%; in assay [12] it was 2.4%; in [26] it was 35%. For the same compound, the kinase still bound, per cent of control in assay [27] worked out at 32%; in assay [13] it was 100%.
